Values of other authors as cited in patent US8052982B2, “Bioimplant formulation comprising lecithin and stearin” (Peptech Animal Health PTY Limited, priority 1998, dated 2011).

In the case of `C[C@H](CS)C(=O)N1CCC[C@H]1C(=O)O` [captopril], the “log octanol/water partition (log P)” value is listed as −1.86. For `Cn1c(=O)c2c(ncn2CCO)n(C)c1=O` [etofylline], the “log octanol/water partition (log P)” value is given as 0.35. In the case of `O=C(O)c1ccccc1Nc1cccc(C(F)(F)F)c1` [flufenamic acid], the “log octanol/water partition (log P)” value is listed as 1.14. For `C[C@@H](O)[C@@H]1NC(=O)[C@H](CCCCN)NC(=O)[C@@H](Cc2c[nH]c3ccccc23)NC(=O)[C@H](Cc2ccccc2)NC(=O)[C@@H](NC(=O)[C@H](N)Cc2ccccc2)CSSC[C@@H](C(=O)N[C@H](CO)[C@@H](C)O)NC1=O` [octreotide], the “log octanol/water partition (log P)” value is listed as 1.40. In the case of `CCC[C@H](N[C@@H](C)C(=O)N1[C@H](C(=O)O)C[C@@H]2CCCC[C@@H]21)C(=O)O` [perindoprilate], the “log octanol/water partition (log P)” value is listed as −0.36. In the case of `CC(CN1c2ccccc2Sc2ccccc21)N(C)C` (centres unmarked) [promethazine], the “log octanol/water partition (log P)” value is listed as 4.75. For `C[C@H](N[C@@H](CCc1ccccc1)C(=O)O)C(=O)N1Cc2ccccc2C[C@H]1C(=O)O` [quinaprilate], the “log octanol/water partition (log P)” value is listed as 0.69. For `C[C@H](N[C@@H](CCc1ccccc1)C(=O)O)C(=O)N1[C@H](C(=O)O)C[C@H]2CCCC[C@@H]21` [trandolaprilate], the “log octanol/water partition (log P)” value is given as 1.02.
